Experimental data: patent US6552006B2, “Immunomodulatory polynucleotides in treatment of an infection by an intracellular pathogen” (The Regents of the University of California, priority 2000, dated 2003)
Marks after values point to notes of the source that are not given here.

Columns and labels:
[1] = tested on: indoleamine 2,3-dioxygenase (IDO); assay: IDO gene induction in vivo in mice, semi-quantitative RT-PCR; conditions: 50 μg i.v.; after 16 hrs
IFN-γ = assay: Serum IFN-γ by ELISA in mice; format: in vivo
Experimental: (§1) Serum obtained from M. avium-infected mice that received ISS or PBS was assayed for IFN-γ and IL-12 by ELISA using mouse IFN-γ and IL-12 (p70) ELISA kits (Endogen, Inc. Woburn, […]), respectively, and following the manufacturer's instructions.

[2] = tested on: indoleamine 2,3-dioxygenase (IDO); assay: IDO gene transcription in mBMDM in vitro, semi-quantitative RT-PCR; format: cell-based, mouse; conditions: mBMDM treated 3 days prior to M. avium infection; 4, 8, 24 hrs after infection
Experimental: 1-4×10^6 mBMDM were treated with ISS or M-ODN. After 3 days, the cells were infected with M. avium for 2 hrs. At 2, 24, and 48 hrs after infection, the M. avium-infected macrophages were lysed and total RNA was isolated using the Trizol Reagent (Gibco BRL). The induction of IDO gene transcription was measured by semi-quantitative […]. First-strand cDNA preparation and PCR amplification was carried out using the SuperScript Pre-amplification System (Gibco BRL) and AdvanTaq Plus DNA polymerase (Clontech, San Francisco, Calif.), respectively. PCR products were visualized by electrophoresis on 2% agarose gels. The primer sequences used were as follows:
For in vitro studies mBMDM were treated with ISS for 3 days prior to M. avium infection. Then, cells were lysed at 4, 8, and 24 hrs after infection, total RNA was extracted, and semi-quantitative RT-PCR was performed.

M. avium [3] = assay: Attachment and/or invasion of M. avium into mBMDM, CFU immediately after infection; format: cell-based, Mycobacterium avium; conditions: vs cells treated with M-ODN or medium alone
Experimental: (§2) Alternatively, 5×10^4 mBMDM or hMDM was treated with ISS for 3 days before infection. Macrophages treated with M-ODN or with media alone served as controls. After 3 days, the cells were infected for 2 hrs with M. avium at a macrophage:bacteria ratio of 2:1 for mBMDM or of 1:10 for hMDM, and subsequently cultured in fresh media without antibiotics. To examine attachment and/or invasion of M. avium, the macrophages were lysed immediately after washing, and the number of bacteria were enumerated by the CFU assay. Intracellular growth of M. avium was determined on days 1, 3, and 7 after infection. To account for all the mycobacteria in each group, corresponding lysates were combined and then the number of CFU was determined. To examine the efficacy of anti-mycobacterial treatments, CFU recovered from cells treated with medium alone were considered as 100% growth.
ISS activate macrophages and induce the expression of surface adhesion molecules such as ICAM-1 (Martin-Orozco, et al. (1999) Int. Immun. 11:1111-1118). These molecules may affect the attachment of M. avium or its invasion into mouse bone marrow-derived macrophages (mBMDM). […]

IL-12 (p70) = assay: Serum IL-12 (p70) by ELISA in mice; format: in vivo
Experimental: as §1

M. avium [4] = assay: Intracellular growth of M. avium in mouse bone marrow-derived macrophages (mBMDM) in vitro, CFU assay; format: cell-based, Mycobacterium avium; conditions: for % of CFU: 10 μg/ml 72 h prior to infection, medium alone = 100%
Experimental: A previously studied M. avium strain 13 (Hayashi, et al. (1999) Infect. Immun. 67:3558-3565; Meylan, et al. (1990) Infect. Immun. 58:2564-2568), isolated from an AIDS patient at UCSD, San Diego, Calif., was used in all experiments. The organism was cultured on Middlebrook 7H11 agar (Difco Laboratories, Detroit, Mich.) with OADC enrichment at 37° C. in the presence of 5% CO2 for two weeks. Transparent colonies were selectively picked and further cultured on Middlebrook 7H11 plates for two more weeks. The resulting colonies, which were predominantly transparent (>90%), were then collected and washed two times with phosphate-buffered saline (PBS). The bacteria were finally resuspended in Middlebrook 7H9 broth (Difco Laboratories) and the OD600 of the suspension was adjusted to 0.15-0.2. The suspension was aliquoted and stored at −70° C. until use. The number of organisms/ml of this suspension was determined by the colony forming unit (CFU) assay.
The number of CFU in a given sample was determined by colony counting as described previously (Ogata, et al. (1992) Infect. Immun. 60:4720-4725). Serial 10-fold dilutions of total cell lysates or tissue homogenates were performed in PBS. 10 μl of each dilution were plated on Middlebrook 7H11 plates supplemented with OADC enrichment. The plates were incubated up to 14 days at 37° C. The number of colonies was counted every alternate day from day 10 onwards until no new colonies appeared. This yielded the number of CFU/10 μl. The number of CFU in each well was then calculated.
Preparation of Murine Macrophages. Mouse bone marrow-derived macrophages (mBMDM) were prepared from mouse bone marrow using L-cell conditioned media, as described in Martin-Orozco, et al. (1999) […] 11:1111-1118.
as §2
To determine whether treatment with ISS after infection alters M. avium growth, adherent cells were first infected with M. avium for 2 hrs and then these cells were cultured with fresh media containing ISS. Infected cells treated with M-ODN or medium alone served as controls. At day 7, intracellular growth of M. avium was assessed by CFU assay.

[5] = other experiments, data not shown

5′-TGACTGTGAACGTTCGAGATGA-3′ (SEQ ID NO:1) [ISS]
IDO gene induction in vivo in the liver [1]: not in the liver | IDO gene induction in vivo in the lungs and spleen [1]: observed | serum IFN-γ levels (IFN-γ; M. avium-infected mice (10^6 organisms/mouse), 2, 4, 6 weeks, ISS-pretreated vs PBS-pretreated): no significant differences | time for serum IFN-γ to attain basal levels post injection (IFN-γ; [5]): ≤ 3 weeks | time of peak serum level of IFN-γ after administration (IFN-γ; [5]): 1 days | optimal induction of IDO gene transcription [2]: require both treatment with ISS and M. avium infection | CFU recovered immediately from cells treated before infection (attachment/invasion) (M. avium [3]): not significantly different | serum IL-12 levels (IL-12 (p70); M. avium-infected mice (10^6 organisms/mouse), 2, 4, 6 weeks, below ELISA detection): < 5 pg/mL | time for serum IL-12 to attain basal levels post injection (IL-12 (p70); [5]): ≤ 3 weeks | time of peak serum level of IL-12 after administration (IL-12 (p70); [5]): 1 days | inhibition of intracellular growth of M. avium in mBMDM from knockout mice (M. avium [4]; NADPH oxidase−/−, iNOS−/−, TNF-α−/−, IL-12p40−/−, IFN-α/βR−/−, IFN-γR−/− mBMDM, ISS 3 days before infection): 60-85% | % of CFU (M. avium [4]; mBMDM from IFN-αR−/− 129S6/SvEv, day 7): 10.9 ± 01.7^b % | % of CFU (M. avium [4]; mBMDM from IFN-γR−/− 129S6/SvEv, day 7): 7.6 ± 01.3^b % | % of CFU (M. avium [4]; mBMDM from IL-12 p40−/− C57B1/6, day 7): 26.4 ± 10.1^b % | % of CFU (M. avium [4]; mBMDM from INOS−/− C57B1/6, day 7): 37.3 ± 4.6^b % | % of CFU (M. avium [4]; mBMDM from NADPH oxidase−/− (gp91 phox−/−) C57B1/6, day 7): 11.4 ± 1.5^b % | % of CFU (M. avium [4]; mBMDM from TNF-α−/− C57B1/6, day 7): 24.0 ± 6.0^b % | % of CFU (M. avium [4]; mBMDM from Wild type 129S6/SvEV, day 7): 17.0 ± 4.0^b % | % of CFU (M. avium [4]; mBMDM from Wild type C57B1/6, day 7): 18.2 ± 7.3^b % | reduction of bacterial growth in mBMDM (M. avium [4]; mBMDM infected first, then treated, ISS 10 μg/ml, CLA 0.1 μg/ml, 7 days after infection, compared to medium alone): 68% | inhibition of intracellular growth of M. avium in mBMDM (M. avium [4]; treated 72 hrs before infection, day 7): 80% | decrease of intracellular growth of M. avium in mBMDM (M. avium [4]; treated for 7 days starting two hours after infection, vs M-ODN or medium alone): 68%
